This is an account of results in the supplement of paper PMC10307832.

Holding throughout (experiment): relative viability (nuclei count vs DMSO), 5 days (fraction); higher = more cells survive
Compound in experiment [1]: O[C@H]1CC[C@H](Nc2ncc3nc(Nc4c(F)cc(F)cc4F)n([C@H]4CCOC4)c3n2)CC1 [Tanzisertib] + Cc1nc(NC(=O)N2CCC[C@H]2C(N)=O)sc1-c1ccnc(C(C)(C)C(F)(F)F)c1 [Alpelisib] (partner 2 µM)
In short, it runs like this:
(§1)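 Nuclei were stained with Hoechst during a one-step fixation (final 0.05% Triton X-100, 1% formaldehyde, 1 ug/ml Hoechst) carried out 5 days after dosing, then counted on 4× images. The cells, lung cancer lines in 1536-well plates, had been dosed by pin tool the day after seeding with one drug alone or a fixed anchor-drug dose plus five library-drug doses (not always all listed) in √10 steps. Relative viability is the nuclei count in treated wells divided by that in vehicle wells, and each value is the median of duplicate plates.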

Compound in experiment [2]: C[C@@H](N)c1ccc(C(=O)Nc2ccnc3[nH]ccc23)cc1 + CS(=O)(=O)CCNCc1ccc(-c2ccc3ncnc(Nc4ccc(OCc5cccc(F)c5)c(Cl)c4)c3c2)o1 [Lapatinib] (partner 2 µM)
In a few lines: as §1

Compound in experiment [3]: C1CNCCC1C2=CC(=NN2)C3=CC=NC=C3 + CCNC(=O)c1noc(-c2cc(C(C)C)c(O)cc2O)c1-c1ccc(CN2CCOCC2)cc1 [Luminespib] (partner 0.01 µM)
In a few lines: as §1

Compound in experiment [4]: O[C@H]1CC[C@H](Nc2ncc3nc(Nc4c(F)cc(F)cc4F)n([C@H]4CCOC4)c3n2)CC1 [Tanzisertib] + COc1cc2c(Oc3ccc(NC(=O)C4(C(=O)Nc5ccc(F)cc5)CC4)cc3F)ccnc2cc1OCCCN1CCOCC1 [Foretinib] (partner 0.25 µM)
In a few lines: as §1

In the case of UMC-11, the relative viability in experiment [1] (first compound 0.08 µM) stood at 0.835; in experiment [1] (first compound 0.253 µM), 0.987; in experiment [1] (first compound 0.8 µM), 0.999; in experiment [1] (first compound 2.53 µM), 0.956; in experiment [1] (first compound 8 µM), 1.13; in experiment [2] (first compound 0.04 µM), 1.02. In addition, the relative viability came to 0.974 in experiment [2] (first compound 0.1265 µM); 1.05 in experiment [2] (first compound 0.4 µM); 0.459 in experiment [2] (first compound 1.265 µM); 0.812 in experiment [2] (first compound 4 µM); 0.959 in experiment [3] (first compound 0.08 µM); 1.19 in experiment [3] (first compound 0.8 µM). For the same cell line, the relative viability was 1.05 in experiment [3] (first compound 2.53 µM); 1.14 in experiment [3] (first compound 8 µM); 0.976 in experiment [4] (first compound 0.08 µM); 1.14 in experiment [4] (first compound 0.253 µM); 0.962 in experiment [4] (first compound 0.8 µM); 1.01 in experiment [4] (first compound 2.53 µM). In addition, in experiment [4] (first compound 8 µM), the relative viability was found to be 1.18.
